Experiment: Determination of the log P values by HPLC on a reversed-phase column (C18)
Format: physicochemical
Details: for chromatographic logP: reversed-phase HPLC column (C18)
Description: The log P values given in the table were determined in accordance with EEC Directive 79/831 Annex V.A8 by HPLC (High Performance Liquid Chromatography) on a reversed-phase column (C18). Temperature: 43° C.
Mobile phases for the determination in the acidic range (pH 2.3): 0.1% aqueous phosphoric acid, acetonitrile; linear gradient from 10% acetonitrile to 90% acetonitrile
Calibration was carried out using unbranched alkan-2-ones (with 3 to 16 carbon atoms) whose log P values are known (determination of the log P values by the retention times using linear interpolation between two successive alkanones).

[1] = compounds of the formula (III), cis/trans isomer mixture, first value of the cell
[2] = compounds of the formula (III), cis/trans isomer mixture, second value of the cell
[3] = compounds of the formula (I-2-a), m.p. ° C./log P
[4] = pH 2.3, HPLC reversed-phase column (C18), acidic range (pH 2.3), 43° C.
[5] = HPLC reversed-phase column (C18), acidic range (pH 2.3), 43° C.

log P [1] | log P [2] | log P [3] | SMILES | also measured
5.36 | 5.49 |  | CCOC(=O)C1(OC(=O)Cc2cc(-c3ccc(Cl)cc3)ccc2C)CCC(COC)CC1 (mixture of isomers) [III-8] | 
4.94 | 5.05 |  | CCOC(=O)C1(OC(=O)Cc2c(C)cc(C)cc2C)CCCC(CCOC)C1 (mixture of isomers) [III-22] | 
6.02 | 6.09 |  | CCOC(=O)C1(OC(=O)Cc2c(C)ccc(-c3ccc(Cl)cc3)c2C)CCCC(CCOC)C1 (mixture of isomers) [III-27] | 
4.94 | 5.05 |  | CCOC(=O)C1(OC(=O)Cc2cc(C)c(C)cc2C)CCCC(CCOC)C1 (mixture of isomers) [III-21] | 
 |  | oil/4.03 | COCCC1CCCC2(C1)OC(=O)C(c1cc(C)c(-c3ccc(Cl)cc3)cc1C)=C2O (centres unmarked) [Example I-2-a-25] | 
5.13 | 5.26 |  | CCOC(=O)C1(OC(=O)Cc2c(C)cc(Br)cc2C)CCCC(CCOC)C1 (mixture of isomers) [III-19] | 
4.82 | 4.93 |  | CCOC(=O)C1(OC(=O)Cc2c(C)cc(Cl)cc2C)CCCC(COC)C1 (mixture of isomers) [III-4] | 
5.52 | 5.65 |  | CCOC(=O)C1(OC(=O)Cc2c(CC)cc(Br)cc2CC)CCC(COC)CC1 (mixture of isomers) [III-13] | 
6.03 | 6.12 |  | CCOC(=O)C1(OC(=O)Cc2cc(C)c(-c3ccc(Cl)cc3)cc2C)CCCC(CCOC)C1 (mixture of isomers) [III-25] | 
5.00 | 5.09 |  | CCOC(=O)C1(OC(=O)Cc2cc(C)c(C)cc2C)CCC(CCOC)CC1 (mixture of isomers) [III-31] | 
 |  | oil/3.67 | COCCC1CCC2(CC1)OC(=O)C(c1cc(-c3ccc(Cl)cc3)ccc1Cl)=C2O (centres unmarked) [Example I-2-a-35] | 
 |  | oil/3.10 | COCCC1CCC2(CC1)OC(=O)C(c1c(C)cc(Br)cc1C)=C2O (centres unmarked) [Example I-2-a-29] | 
 |  | oil/2.78 | COCC1CCCC2(C1)OC(=O)C(c1cc(C)c(C)cc1C)=C2O (centres unmarked) [1-2-a-5] | 
 |  | oil/3.19 | CCc1cc(C)cc(CC)c1C1=C(O)C2(CCC(COC)CC2)OC1=O (centres unmarked) [Example I-2-a-14] | 
 |  | oil/2.96 | COCCC1CCCC2(C1)OC(=O)C(c1cc(C)c(C)cc1C)=C2O (centres unmarked) [Example I-2-a-21] | 
 |  |  | CCOC(=O)C1(OC(=O)Cc2c(C)cc(C)cc2C)CCC(CCOC)CC1 (centres unmarked) [III-1] | log P (cis/trans isomer mixture, HPLC reversed-phase column (C18), acidic range (pH 2.3), 43° C.): 5.13; chromatographic logP (pH 2.3, cis/trans isomer mixture, HPLC reversed-phase column (C18), acidic range (pH 2.3), 43° C.): 5.01
4.76 | 4.90 |  | CCOC(=O)C1(OC(=O)Cc2c(C)cc(Cl)cc2C)CCC(COC)CC1 (mixture of isomers) [III-10] | 
 |  | oil/3.59 | CCc1cc(Br)cc(CC)c1C1=C(O)C2(CCC(CCOC)CC2)OC1=O (centres unmarked) [Example I-2-a-32] | 
 |  | oil/3.13 | COCCC1CCCC2(C1)OC(=O)C(c1c(C)cc(Br)cc1C)=C2O (centres unmarked) [Example I-2-a-19] | 

log P [1] | log P [2] | log P [3] | SMILES | also measured
5.68 | 5.80 |  | CCOC(=O)C1(OC(=O)Cc2cc(-c3ccc(Cl)cc3)ccc2C)CCCC(CCOC)C1 (mixture of isomers) [III-18] | 
6.14 | 6.19 |  | CCOC(=O)C1(OC(=O)Cc2cc(C)c(-c3ccc(Cl)cc3)cc2C)CCC(CCOC)CC1 (mixture of isomers) [III-34] | 
5.86 | 5.96 |  | CCOC(=O)C1(OC(=O)Cc2c(C)ccc(-c3ccc(Cl)cc3)c2C)CCC(COC)CC1 (mixture of isomers) [III-17] | 
 |  | oil/3.63 | CCc1cc(Br)cc(CC)c1C1=C(O)C2(CCCC(CCOC)C2)OC1=O (centres unmarked) [Example I-2-a-23] | 
 |  |  | COCCC1CCC2(CC1)OC(=O)C(c1c(C)cc(C)cc1C)=C2OC(=O)C(C)C (centres unmarked) [Example I-2-b-1] | chromatographic logP [4]: 4.79
4.94 | 5.05 |  | CCOC(=O)C1(OC(=O)Cc2c(C)cc(Br)cc2C)CCCC(COC)C1 (mixture of isomers) [III-3] | 
 |  |  | CCc1cc(C)cc(CC)c1C1=C(OC(=O)C(C)C)C2(CCC(CCOC)CC2)OC1=O (centres unmarked) [Example I-2-b-2] | chromatographic logP [4]: 5.43
5.50 | 5.58 |  | CCOC(=O)C1(OC(=O)Cc2cc(-c3ccc(Cl)cc3)ccc2C)CCCC(COC)C1 (mixture of isomers) [III-2] | 
5.70 | 5.85 |  | CCOC(=O)C1(OC(=O)Cc2cc(-c3ccc(Cl)cc3)ccc2Cl)CCC(CCOC)CC1 (mixture of isomers) [III-35] | 
4.85 | 4.94 |  | CCOC(=O)C1(OC(=O)Cc2c(C)cc(C)cc2C)CCCC(COC)C1 (mixture of isomers) [III-6] | 
5.00 | 5.11 |  | CCOC(=O)C1(OC(=O)Cc2c(C)cc(Cl)cc2C)CCCC(CCOC)C1 (mixture of isomers) [III-20] | 
5.00 | 5.15 |  | CCOC(=O)C1(OC(=O)Cc2c(C)cc(Cl)cc2C)CCC(CCOC)CC1 (mixture of isomers) [III-30] | 
 |  | oil/3.38 | CCc1cc(Br)cc(CC)c1C1=C(O)C2(CCC(COC)CC2)OC1=O (centres unmarked) [Example I-2-a-13] | 
 |  | oil/3.03 | COCCC1CCCC2(C1)OC(=O)C(c1c(C)cc(Cl)cc1C)=C2O (centres unmarked) [Example I-2-a-20] | 
 |  | oil/3.00 | COCCC1CCC2(CC1)OC(=O)C(c1c(C)cc(Cl)cc1C)=C2O (centres unmarked) [Example I-2-a-30] | 
 |  | oil/3.68 | COCCC1CCCC2(C1)OC(=O)C(c1cc(-c3ccc(Cl)cc3)ccc1Cl)=C2O (centres unmarked) [Example I-2-a-26] | 
 |  | oil/2.92 | COCCC1CCC2(CC1)OC(=O)C(c1cc(C)c(C)cc1C)=C2O (centres unmarked) [Example I-2-a-31] | 
5.13 | 5.29 |  | CCOC(=O)C1(OC(=O)Cc2c(C)cc(Br)cc2C)CCC(CCOC)CC1 (mixture of isomers) [III-29] | 
5.69 | 5.81 |  | CCOC(=O)C1(OC(=O)Cc2cc(-c3ccc(Cl)cc3)ccc2C)CCC(CCOC)CC1 (mixture of isomers) [III-28] | 

log P [1] | log P [2] | log P [3] | SMILES | also measured
5.52 | 5.67 |  | CCOC(=O)C1(OC(=O)Cc2cc(-c3ccc(Cl)cc3)ccc2Cl)CCC(COC)CC1 (mixture of isomers) [III-16] | 
 |  | oil/3.44 | CCc1cc(C)cc(CC)c1C1=C(O)C2(CCCC(CCOC)C2)OC1=O (centres unmarked) [Example I-2-a-24] | 
5.64 | 5.75 |  | CCOC(=O)C1(OC(=O)Cc2c(CC)cc(C)cc2CC)CCC(CCOC)CC1 (mixture of isomers) [III-33] | 
 |  | oil/3.40 | CCc1cc(C)cc(CC)c1C1=C(O)C2(CCC(CCOC)CC2)OC1=O (centres unmarked) [Example I-2-a-33] | 
4.85 | 4.93 |  | CCOC(=O)C1(OC(=O)Cc2cc(C)c(C)cc2C)CCCC(COC)C1 (mixture of isomers) [III-5] | 
5.75 | 5.90 |  | CCOC(=O)C1(OC(=O)Cc2c(CC)cc(Br)cc2CC)CCC(CCOC)CC1 (mixture of isomers) [III-32] | 
5.39 | 5.51 |  | CCOC(=O)C1(OC(=O)Cc2c(CC)cc(C)cc2CC)CCC(COC)CC1 (mixture of isomers) [III-14] | 
4.76 | 4.88 |  | CCOC(=O)C1(OC(=O)Cc2c(C)cc(C)cc2C)CCC(COC)CC1 (mixture of isomers) [III-12] | 
 |  |  | CCOC(=O)OC1=C(c2c(CC)cc(C)cc2CC)C(=O)OC12CCCC(CCOC)C2 (centres unmarked) [Example I-2-c-3] | log P [5]: 4.97
 |  | oil/3.71 | COCCC1CCC2(CC1)OC(=O)C(c1cc(-c3ccc(Cl)cc3)ccc1C)=C2O (centres unmarked) [Example I-2-a-28] | 
5.56 | 5.66 |  | CCOC(=O)C1(OC(=O)Cc2c(CC)cc(C)cc2CC)CCCC(CCOC)C1 (mixture of isomers) [III-24] | 
 |  | oil/2.94 | COCCC1CCCC2(C1)OC(=O)C(c1c(C)cc(C)cc1C)=C2O (centres unmarked) [Example I-2-a-22] | 
5.90 | 5.98 |  | CCOC(=O)C1(OC(=O)Cc2cc(C)c(-c3ccc(Cl)cc3)cc2C)CCC(COC)CC1 (mixture of isomers) [III-15] | 
4.88 | 5.01 |  | CCOC(=O)C1(OC(=O)Cc2c(C)cc(Br)cc2C)CCC(COC)CC1 (mixture of isomers) [III-9] | 
 |  |  | CCOC(=O)OC1=C(c2cc(-c3ccc(Cl)cc3)ccc2C)C(=O)OC12CCC(COC)CC2 (centres unmarked) [Example I-2-c-2] | log P [5]: 4.95
 |  | oil/3.75 | COCCC1CCCC2(C1)OC(=O)C(c1cc(-c3ccc(Cl)cc3)ccc1C)=C2O (centres unmarked) [Example I-2-a-18] | 
4.74 | 4.85 |  | CCOC(=O)C1(OC(=O)Cc2cc(C)c(C)cc2C)CCC(COC)CC1 (mixture of isomers) [III-11] | 
5.67 | 5.82 |  | CCOC(=O)C1(OC(=O)Cc2cc(-c3ccc(Cl)cc3)ccc2Cl)CCCC(CCOC)C1 (mixture of isomers) [III-26] | 
5.52 | 5.62 |  | CCOC(=O)C1(OC(=O)Cc2c(CC)cc(Br)cc2CC)CCCC(COC)C1 (mixture of isomers) [III-7] | 

SMILES | log P [1] | log P [2] | log P [3] | also measured
COCC1CCCC2(C1)OC(=O)C(c1cc(-c3ccc(Cl)cc3)ccc1C)=C2O (centres unmarked) [Example I-2-a-2] |  |  | oil/3.58 | 
CCc1cc(Br)cc(CC)c1C1=C(O)C2(CCCC(COC)C2)OC1=O (centres unmarked) [Example I-2-a-7] |  |  | oil/3.44 | 
COCC1CCC2(CC1)OC(=O)C(c1c(C)cc(C)cc1C)=C2O (centres unmarked) [Example I-2-a-12] |  |  | oil/2.69 | 
COCC1CCC2(CC1)OC(=O)C(c1cc(C)c(C)cc1C)=C2O (centres unmarked) [Example I-2-a-11] |  |  | oil/2.72 | 

From US8138119B2, “Alkoxyalkyl spirocyclic tetramic acids and tetronic acids” (Bayer Cropscience AG, priority 2005, dated 2012)
